Results on 95 compounds are retold here after PubChem BioAssay AID1902 (Broad Institute, 2009).

SMILES strings stand for the structures. Activity calls are given as the source filed them.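 Rule for the calls: active = EC50 no more than a set limit of log units above the highest dose; inactive = the rest.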 Bounds are passed on as bounds.

The target in the experiment is S. pyogenes SKKanGAS, kanamycin survival, BacTiterGlo, 6 h. Put plainly: SKKanGAS survival reduction under kanamycin, dose response, streptokinase promoter inhibitor project, SKKanGAS strain, luminescence, dose confirmation (AID 1902).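 Note: lower survival reflects blocked streptokinase promoter driving kanamycin resistance gene.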
As for `CC(C)Nc1nc(NC(C)C)nc(N(C)N)n1`, the 50% effective concentration (EC50) (as a rule, the concentration at which the effect is half-maximal) was 3.07 µM.

As for `Cc1ccc(NC(=O)NCc2ccccn2)cc1Cl`, the EC50 is > 15 µM (inactive).

For the compound `O=C(N/N=C/c1ccccn1)c1ccc(Cl)c(Cl)c1`, the 50% effective concentration (EC50) was 6.85 µM.

In the case of `O=[N+]([O-])c1cccnc1N1CCC(c2cc(-c3ccc(Cl)cc3)n[nH]2)CC1`, the EC50 is 2.96 µM.

With `O=C(CCc1ccccc1)NNC(=S)NC(=O)c1ccccc1`, the EC50 is 1.81 µM.

`Cc1cccc(-n2ncc3c2CCCC3NC(=O)CCN2Cc3ccccc3C2=O)c1C` (stereo not given): the EC50 is > 15 µM (inactive).

As to `CN(CC1CCCO1)S(=O)(=O)c1ccc(C(=O)Nc2ccccc2F)cc1` (stereo not given), the EC50 is > 15 µM (inactive).

In the case of `COc1cccc(NP(=O)(Oc2ccc(Cl)cc2)Oc2ccc(Cl)cc2)c1`, the concentration for a half-maximal effect (EC50) is 3.22 µM.

Consider `Cc1ccc(N2C(=O)C3CC(c4ccccc4)=C4C5C=CC(C6C(=O)N(c7ccc(C)cc7)C(=O)C56)C4C3C2=O)cc1` (stereo not given), for which the EC50 was 1.39 µM.

For the compound `Cc1ccc(SC/C(O)=C(\C#N)c2nc3ccccc3s2)cc1`, the 50% effective concentration (EC50) was 2.83 µM.

Take `O=c1c([N+](=O)[O-])cccn1Cc1ccc(F)cc1Cl`: the EC50 is 3.38 µM.

Consider `CCc1c(C)c(C#N)c2[nH]c3ccccc3n2c1=S`, for which the 50% effective concentration (EC50) is 14.1 µM.

Take `N#Cc1c(-c2ccccc2)nc(SCC(=O)N2c3ccccc3Sc3ccccc32)[nH]c1=O`: the EC50 was 3.87 µM.

As for `O=C(Nc1cccc(C(F)(F)F)c1)Oc1ccc(Cl)c2cccnc12`, the EC50 was 1.94 µM.

Consider `O=C(Nc1ccccc1Cl)/C(Cl)=C(\Cl)S(=O)c1ccccc1` (stereo not given), for which the EC50 was 1.98 µM.

On to `Cc1csc2nc(CSc3nc4ccccc4o3)c(Br)n12`, for which the EC50 was 6.42 µM.

Turning to `O=C(Nc1ccc(Cl)c(Cl)c1)N1CC=C(c2ccccc2)CC1`, the EC50 was 8.08 µM.

As to `CCCN(CCC)c1nc(-c2ccccn2)nc2ccccc12`, the EC50 is 0.074 µM.

`OCCCCC#Cc1c(-c2ccsc2)sc2ccccc12`: the EC50 is 7.82 µM.

With `O=S(=O)(NC(=NCc1ccccc1)c1ccccc1)c1ccc(Br)cc1`, the EC50 was > 15 µM (inactive).

In the case of `O=C(NC(=S)Nc1ccccc1N1CCCCC1)c1ccc(F)cc1Cl`, the EC50 is 3.4 µM.

For `O=C(CSc1nnc(CNC(=O)c2ccccc2)o1)NCCc1ccccc1`, the EC50 is > 15 µM (inactive).

As for `CCOc1cccc2sc(Nc3nc4ccc(NC(C)=O)cc4s3)nc12`, the 50% effective concentration (EC50) was 4.69 µM.

For `CC1=Nc2ccccc2/C1=C\c1nc(-c2ccc(F)cc2)oc1O`, the EC50 was 7.57 µM.

With `Cn1nnc(-c2ccc(OCc3ccccc3F)cc2)n1`, the EC50 was 9.46 µM.

As to `O=C(O)c1ccc(-c2nc(-c3ccc(Cl)c(Cl)c3)cs2)cc1`, the 50% effective concentration (EC50) was 3.82 µM.

For `Oc1c(Cl)cc(Cl)c(Cl)c1Cc1c(O)c(Cl)cc(Cl)c1Cl`, the concentration giving a half-maximal response (EC50) was 0.202 µM.

As for `COc1ccc(/C=C/c2ccc3cccc(O)c3n2)cc1Br`, the half-maximal effective concentration (EC50) was 0.419 µM.

Turning to `O=C1N/C(=N\N=C\c2cccnc2)SC1Cc1ccc(SC(F)F)cc1` (stereo not given), the 50% effective concentration (EC50) was 3.08 µM.

On to `CCn1cc(C(=O)O)c(=O)c2cc(F)c(N/N=C/c3ccccc3[N+](=O)[O-])cc21`, for which the 50% effective concentration (EC50) was 4.39 µM.

As for `Cc1c(Cl)c([N+](=O)[O-])nn1Cc1ccc(C(=O)N/N=C\c2cc(Cl)ccc2O)o1`, the EC50 was 1.48 µM.

On to `CC12CCC(c3c(C(=O)Nc4nccs4)nn(-c4ccccc4)c31)C2(C)C` (stereo not given), for which the concentration giving a half-maximal response (EC50) is 3.4 µM.

As to `O=C(N/N=C/c1cc(Br)cc([N+](=O)[O-])c1O)c1ccc(NC(=O)c2ccc(F)cc2)cc1`, the EC50 is 4 µM.

`Cn1c(-c2cc(Br)ccc2O)n[nH]c1=S`: the concentration giving a half-maximal response (EC50) was 9.92 µM.

Take `O=C(Nc1ccc(Oc2ccc(Cl)cc2)c(Cl)c1)c1cc(I)cc(I)c1O`: the EC50 is under 0.06 µM.

Take `CCCCN(C)S(=O)(=O)c1ccc(C(=O)Nc2nnc(-c3cccs3)o2)cc1`: the EC50 is 0.941 µM.

With `COc1ccc(-c2coc3c(C)c4oc(=O)c(CCC(=O)O)c(C)c4cc23)cc1`, the EC50 was 2.13 µM.

Regarding `COc1ccc(C2CC(c3cccs3)=NN2C(=O)CSc2nc3c(cnn3-c3ccccc3)c(=O)[nH]2)cc1` (stereo not given), the 50% effective concentration (EC50) is 2.11 µM.

Consider `CCCCn1c(O)c(C(CC)=Nc2ccc3c(c2)CCC3)c(=O)[nH]c1=O`, for which the EC50 was 6.01 µM.

On to `Cn1cc(C(=O)c2ccc(Cl)cc2Cl)cc1C(=O)N/N=C(\N)COc1ccc(Cl)cc1Cl`, for which the concentration for a half-maximal effect (EC50) is 1.72 µM.

Consider `c1ccc(-c2nc(C3CCCCC3)c3sccc3n2)cc1`, for which the concentration for a half-maximal effect (EC50) was 3.31 µM.

For the compound `O=C(CNC(=O)c1ccc2c(c1)OCO2)N/N=C/c1cc(Br)ccc1O`, the 50% effective concentration (EC50) was 2.38 µM.

`O=c1c2ccccc2c(C=Nc2ccc(O)cc2)c(O)n1Cc1ccccc1`: the EC50 is 6.21 µM.

Regarding `COc1ccc(-c2sc3ccccc3c2C#CC2(O)CCCCC2)cc1`, the EC50 is 4.58 µM.

Consider `O=C(/C=C/c1ccc(Br)cc1)NC(=S)NNC(=O)c1ccco1`, for which the EC50 is 0.391 µM.

For the compound `CCCCCCCCOC(=O)C1=C(C)Nc2nnnn2C1c1cccs1` (stereo not given), the concentration for a half-maximal effect (EC50) was 3.45 µM.

As to `Cc1cc(C)c2c(C(C)(C)C)nn(-c3ccccc3)c2n1`, the concentration giving a half-maximal response (EC50) is 2.97 µM.

Turning to `CCn1c(SCC(=O)N2CC(C)OC(C)C2)nc2c([nH]c3ccccc32)c1=O` (stereo not given), the EC50 is > 15 µM (inactive).

For the compound `CC(C)(C)c1cc(-c2csc(Nc3ccccc3)[n+]2Cc2ccc(C(=O)O)cc2)cc(C(C)(C)C)c1O`, the EC50 is 2.15 µM.

Turning to `C=C1c2cccc(O)c2C(O)=C2C(=O)[C@]3(O)C(O)=C(C(N)=O)C(=O)[C@@H](N(C)C)[C@@H]3[C@@H](O)[C@H]12`, the EC50 is 0.093 µM.

Take `Cc1cc(O)c(C(C)C)cc1C1(c2cc(C(C)C)c(O)cc2C)OC(=O)c2ccccc21`: the EC50 is 1.8 µM.

As to `Cc1cc(NC(=O)c2ccc3c(c2)OCCO3)ccc1NC(=O)c1cc2ccccc2o1`, the half-maximal effective concentration (EC50) was 10.1 µM.

On to `CCC(=O)N1N=C(c2c(O)n(CCc3ccccc3)c(=O)[nH]c2=O)CC1c1ccc(OC)c(OC)c1` (stereo not given), for which the concentration giving a half-maximal response (EC50) is 0.991 µM.

For the compound `CS(=O)(=O)c1ccc([C@@H](O)[C@@H](CO)NC(=O)C(Cl)Cl)cc1`, the concentration giving a half-maximal response (EC50) is 0.74 µM.

Take `CN(c1ccccc1)c1nc(N2CCCC2)nc(-n2ccnc2)n1`: the EC50 is 10.8 µM.

With `CCCCCCc1cc2cc(-c3nnc(-c4ccccc4)o3)c(=O)oc2cc1O`, the EC50 is 3.05 µM.

On to `COc1ccc(/C=C/C(=O)NC(=S)NNC(=O)c2ccco2)cc1OC`, for which the EC50 was 4.08 µM.

On to `CCN1/C(=C/C(C)=C/c2sc3ccccc3[n+]2CC)Sc2ccccc21`, for which the half-maximal effective concentration (EC50) is 2.03 µM.

`FC(F)(F)c1cccc(-c2cc3ccccc3nc2N2CCCC2)c1`: the EC50 was 3.6 µM.

Consider `Cc1ccc2cc(CN(Cc3cccs3)C(=O)c3ccco3)c3nnnn3c2c1C`, for which the EC50 is 4.71 µM.

Regarding `Cc1cccc(C)c1OCC(O)Cn1c2ccccc2c2ccccc21` (stereo not given), the EC50 was 3.83 µM.

Turning to `COc1ccc(C(=O)NC(=S)NNC(=O)c2ccccc2C)cc1`, the concentration giving a half-maximal response (EC50) was 1.49 µM.

Turning to `COc1cccc(C(=O)OCC(=O)Nc2nnc(-c3ccccc3)o2)c1`, the concentration giving a half-maximal response (EC50) was 8.68 µM.

Consider `Cn1c(=O)c(C(=O)NNC(=O)c2ccccc2F)c(O)c2ccccc21`, for which the concentration for a half-maximal effect (EC50) was 4.25 µM.

Consider `O=C1/C(=C\c2cc([N+](=O)[O-])ccc2O)SC(=S)N1Cc1ccc(Cl)cc1`, for which the EC50 is 2.18 µM.

On to `Cc1cccc(OCC(=O)Nc2ccccc2N2CCCCC2)c1C`, for which the EC50 is 4.8 µM.

Regarding `Cc1ccc(C)n1-c1sc2c(c1C#N)CCC(C)C2` (stereo not given), the EC50 was 2.35 µM.

Take `O=Nc1c2cc(-c3ccccc3)[nH]nc-2c2ccccc12`: the EC50 is 6.43 µM.

`CC1CC(NC(=O)c2c(O)nc3sccn3c2=O)CC(C)(C)C1` (stereo not given): the EC50 was 7.03 µM.

Consider `CC/C(=N\NC(=S)Nc1cccc(C)c1)c1ccccc1`, for which the concentration for a half-maximal effect (EC50) is 7.96 µM.

Take `O=C(O)CCCNc1cc(N2CCN(C(=O)c3ccco3)CC2)c2noc3c2c1C(=O)c1ccccc1-3`: the EC50 is 6.02 µM.

As for `CC(C)CC(=O)NC(NC(=S)Nc1sc2c(c1C#N)CCCC2)C(Cl)(Cl)Cl` (stereo not given), the concentration for a half-maximal effect (EC50) is 1.66 µM.

Regarding `CCCCC1CCC(c2nc(-c3ccccn3)no2)CC1` (stereo not given), the EC50 was 8.61 µM.

Turning to `S=C1NC(C23CC4CC(CC(C4)C2)C3)=CC(c2ccc3c(c2)OCO3)N1` (stereo not given), the EC50 is 6.76 µM.

With `CCCc1sc(N/N=C/c2ccccn2)nc1-c1ccc(Br)cc1`, the concentration for a half-maximal effect (EC50) is 0.241 µM.

On to `O=C(Nc1scc(-c2ccc(Br)cc2)c1C(=O)O)c1ccccc1F`, for which the EC50 was 1.86 µM.

Turning to `CC(C)CCn1c(=O)c(C(=O)N/N=C/c2cccc(F)c2)c(O)c2ccccc21`, the EC50 is 1.17 µM.

With `CC(C)(C)c1ccc(OCCCC(=O)NC2=NCCS2)cc1`, the EC50 is 3.87 µM.

As for `O=C1c2ccc3c4c(ccc(c24)C(=O)N1c1cccc(O)c1)C(=O)N(c1cccc(O)c1)C3=O`, the EC50 is 1.27 µM.

Turning to `CCN(CC)c1ccc(/C=N/Nc2nc3ccccc3[nH]2)c(O)c1`, the EC50 is 3.17 µM.

`CCCCc1ccc(NC(=O)NCc2ccccn2)cc1`: the EC50 is > 15 µM (inactive).

With `O=C(COc1ccc(Cl)cc1)Nc1nnc(-c2ccc3c(c2)CCCC3)o1`, the EC50 was 0.369 µM.

Turning to `Cc1ccc(C)c(S(=O)(=O)N2CCN(Cc3ccc(O)c4ncccc34)CC2)c1`, the EC50 is 2.8 µM.

As for `Clc1cccc(Nc2ncnc3c2cnn3-c2ccccc2)c1`, the EC50 was 4.98 µM.

For `CCCNC(=O)c1ccc(N2CCC3(CC2)CC(c2ccccc2)=NO3)c(NC(=O)c2ccco2)c1`, the EC50 was 8 µM.

Turning to `Cc1cccc(N=C2NN=C(c3c(C)[nH]c4ccccc34)CS2)c1`, the concentration giving a half-maximal response (EC50) is 3.02 µM.

For the compound `COc1ccc(N=C2S/C(=C\c3ccc(OC(C)C(=O)O)c(OC)c3)C(=O)N2CCc2c[nH]c3ccccc23)cc1` (stereo not given), the EC50 is 1.63 µM.

For `Cc1cc(C)c(C)c(OCCCOc2cccc3cccnc23)c1`, the concentration for a half-maximal effect (EC50) was 13.5 µM.

For the compound `Cc1cccc(Oc2nc(-c3ccncc3)nc3ccccc23)c1`, the EC50 was 8.04 µM.

Regarding `O=C(N/N=C/c1cc([N+](=O)[O-])ccc1O)c1cccc(NC(=O)c2cccc(Cl)c2)c1`, the EC50 was 4.69 µM.

For the compound `Oc1ccc(/C=N/n2c3ccccc3c3ccccc32)cc1`, the concentration giving a half-maximal response (EC50) is 5.79 µM.

With `FC(F)(F)c1cc(Nc2ccccc2)nc(-c2ccccn2)n1`, the EC50 was 15.2 µM.

Regarding `Cc1ccc(NC(=S)NC(=O)c2ccc(F)cc2)cc1S(=O)(=O)Nc1cccc(Cl)c1`, the EC50 is 2.19 µM.

For `O=C(NNC(=S)NC(=O)c1cccs1)c1ccc(NC(=O)c2ccccc2)cc1`, the 50% effective concentration (EC50) is 0.556 µM.

For `FC(F)(F)c1cccc(NC(=S)Nc2ccc(Cl)c(Cl)c2)c1`, the EC50 is 2.45 µM.
